Source: ChEMBL document CHEMBL2331549, “Cyclopropyl- and methyl-containing inhibitors of neuronal nitric oxide synthase” (Bioorg Med Chem, 2013)

What was measured:
[1] = Selectivity ratio of Ki for rat nNOS to Ki for mouse iNOS
[2] = biological target: T1, Nitric oxide synthase, inducible (Mus musculus, UniProt P29477); assay: Inhibition of mouse iNOS expressed in Escherichia coli using L-arginine as substrate assessed as formation of nitric oxide by hemoglobin capture assay
T1 sequence (P29477 whole entry): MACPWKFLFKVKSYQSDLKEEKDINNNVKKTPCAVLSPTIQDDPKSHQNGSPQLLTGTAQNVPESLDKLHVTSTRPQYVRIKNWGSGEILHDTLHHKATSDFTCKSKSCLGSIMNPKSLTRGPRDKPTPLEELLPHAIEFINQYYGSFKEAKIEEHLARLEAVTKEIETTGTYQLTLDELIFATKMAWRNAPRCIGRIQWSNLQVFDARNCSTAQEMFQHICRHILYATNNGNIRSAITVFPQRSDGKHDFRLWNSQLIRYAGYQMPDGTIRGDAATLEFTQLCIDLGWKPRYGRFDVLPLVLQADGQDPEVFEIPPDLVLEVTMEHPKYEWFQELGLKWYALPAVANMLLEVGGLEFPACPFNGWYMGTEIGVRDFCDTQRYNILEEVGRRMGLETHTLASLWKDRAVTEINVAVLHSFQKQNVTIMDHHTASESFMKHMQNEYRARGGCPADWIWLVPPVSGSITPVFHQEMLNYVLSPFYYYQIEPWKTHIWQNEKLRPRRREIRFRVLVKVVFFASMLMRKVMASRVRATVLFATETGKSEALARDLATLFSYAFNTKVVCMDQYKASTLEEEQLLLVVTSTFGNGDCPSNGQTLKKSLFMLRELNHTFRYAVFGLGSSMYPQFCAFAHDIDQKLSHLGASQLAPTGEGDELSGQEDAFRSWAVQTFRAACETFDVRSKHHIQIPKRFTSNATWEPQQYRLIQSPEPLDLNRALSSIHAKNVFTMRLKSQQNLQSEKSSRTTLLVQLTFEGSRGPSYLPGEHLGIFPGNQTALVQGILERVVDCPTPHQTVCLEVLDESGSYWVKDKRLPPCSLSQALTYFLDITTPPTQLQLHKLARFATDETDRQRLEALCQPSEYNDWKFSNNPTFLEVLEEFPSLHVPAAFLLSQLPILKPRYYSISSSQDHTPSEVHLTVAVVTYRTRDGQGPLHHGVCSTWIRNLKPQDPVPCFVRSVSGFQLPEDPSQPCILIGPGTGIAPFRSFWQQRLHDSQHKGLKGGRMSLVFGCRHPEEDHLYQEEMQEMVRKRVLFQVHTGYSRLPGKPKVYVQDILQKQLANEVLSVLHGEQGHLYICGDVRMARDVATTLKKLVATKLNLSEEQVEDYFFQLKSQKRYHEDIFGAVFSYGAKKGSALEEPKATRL

[3] = Selectivity ratio of Ki for rat nNOS to Ki for bovine eNOS
Nitric oxide synthase 3 = biological target: T2, Nitric oxide synthase 3 (Bos taurus, UniProt P29473); assay: Inhibition of bovine eNOS expressed in Escherichia coli using L-arginine as substrate assessed as formation of nitric oxide by hemoglobin capture assay
T2 sequence (P29473 whole entry): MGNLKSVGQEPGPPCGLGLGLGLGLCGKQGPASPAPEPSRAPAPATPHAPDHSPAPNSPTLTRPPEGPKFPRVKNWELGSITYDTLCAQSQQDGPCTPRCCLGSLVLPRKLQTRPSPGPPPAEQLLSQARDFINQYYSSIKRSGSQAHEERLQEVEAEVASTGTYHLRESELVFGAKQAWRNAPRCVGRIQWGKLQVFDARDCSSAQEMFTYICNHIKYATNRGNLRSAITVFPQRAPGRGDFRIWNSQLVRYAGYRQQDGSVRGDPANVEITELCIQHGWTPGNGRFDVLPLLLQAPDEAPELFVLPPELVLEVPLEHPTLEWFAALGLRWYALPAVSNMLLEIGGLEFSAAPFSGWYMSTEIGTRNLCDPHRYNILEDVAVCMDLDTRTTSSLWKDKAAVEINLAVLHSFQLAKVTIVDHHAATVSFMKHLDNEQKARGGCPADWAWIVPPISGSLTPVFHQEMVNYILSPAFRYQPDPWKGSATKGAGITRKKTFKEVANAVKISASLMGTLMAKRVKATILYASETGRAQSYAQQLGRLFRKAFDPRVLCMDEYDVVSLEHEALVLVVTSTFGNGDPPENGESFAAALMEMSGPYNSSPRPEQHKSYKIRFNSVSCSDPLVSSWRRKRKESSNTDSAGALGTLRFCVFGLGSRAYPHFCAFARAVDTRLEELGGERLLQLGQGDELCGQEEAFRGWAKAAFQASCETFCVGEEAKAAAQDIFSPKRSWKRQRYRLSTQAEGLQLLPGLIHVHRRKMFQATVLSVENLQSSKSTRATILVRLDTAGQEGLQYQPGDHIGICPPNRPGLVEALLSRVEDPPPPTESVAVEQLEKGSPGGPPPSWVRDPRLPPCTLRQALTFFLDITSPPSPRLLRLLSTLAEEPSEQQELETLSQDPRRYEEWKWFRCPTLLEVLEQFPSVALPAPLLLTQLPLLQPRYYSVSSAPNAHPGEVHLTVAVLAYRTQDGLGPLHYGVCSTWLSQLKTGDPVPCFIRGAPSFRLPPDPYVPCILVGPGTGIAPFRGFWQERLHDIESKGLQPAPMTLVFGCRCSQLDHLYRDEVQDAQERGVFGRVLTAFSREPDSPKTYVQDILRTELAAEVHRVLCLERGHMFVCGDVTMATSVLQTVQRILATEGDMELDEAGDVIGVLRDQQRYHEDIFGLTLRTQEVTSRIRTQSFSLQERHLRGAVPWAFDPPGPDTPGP

Nitric oxide synthase 1 = Nitric oxide synthase 1 (Rattus norvegicus, UniProt P29476); assay: Inhibition of rat nNOS expressed in Escherichia coli using L-arginine as substrate assessed as formation of nitric oxide by hemoglobin capture assay
Nitric oxide synthase 1, sequence (P29476 whole entry): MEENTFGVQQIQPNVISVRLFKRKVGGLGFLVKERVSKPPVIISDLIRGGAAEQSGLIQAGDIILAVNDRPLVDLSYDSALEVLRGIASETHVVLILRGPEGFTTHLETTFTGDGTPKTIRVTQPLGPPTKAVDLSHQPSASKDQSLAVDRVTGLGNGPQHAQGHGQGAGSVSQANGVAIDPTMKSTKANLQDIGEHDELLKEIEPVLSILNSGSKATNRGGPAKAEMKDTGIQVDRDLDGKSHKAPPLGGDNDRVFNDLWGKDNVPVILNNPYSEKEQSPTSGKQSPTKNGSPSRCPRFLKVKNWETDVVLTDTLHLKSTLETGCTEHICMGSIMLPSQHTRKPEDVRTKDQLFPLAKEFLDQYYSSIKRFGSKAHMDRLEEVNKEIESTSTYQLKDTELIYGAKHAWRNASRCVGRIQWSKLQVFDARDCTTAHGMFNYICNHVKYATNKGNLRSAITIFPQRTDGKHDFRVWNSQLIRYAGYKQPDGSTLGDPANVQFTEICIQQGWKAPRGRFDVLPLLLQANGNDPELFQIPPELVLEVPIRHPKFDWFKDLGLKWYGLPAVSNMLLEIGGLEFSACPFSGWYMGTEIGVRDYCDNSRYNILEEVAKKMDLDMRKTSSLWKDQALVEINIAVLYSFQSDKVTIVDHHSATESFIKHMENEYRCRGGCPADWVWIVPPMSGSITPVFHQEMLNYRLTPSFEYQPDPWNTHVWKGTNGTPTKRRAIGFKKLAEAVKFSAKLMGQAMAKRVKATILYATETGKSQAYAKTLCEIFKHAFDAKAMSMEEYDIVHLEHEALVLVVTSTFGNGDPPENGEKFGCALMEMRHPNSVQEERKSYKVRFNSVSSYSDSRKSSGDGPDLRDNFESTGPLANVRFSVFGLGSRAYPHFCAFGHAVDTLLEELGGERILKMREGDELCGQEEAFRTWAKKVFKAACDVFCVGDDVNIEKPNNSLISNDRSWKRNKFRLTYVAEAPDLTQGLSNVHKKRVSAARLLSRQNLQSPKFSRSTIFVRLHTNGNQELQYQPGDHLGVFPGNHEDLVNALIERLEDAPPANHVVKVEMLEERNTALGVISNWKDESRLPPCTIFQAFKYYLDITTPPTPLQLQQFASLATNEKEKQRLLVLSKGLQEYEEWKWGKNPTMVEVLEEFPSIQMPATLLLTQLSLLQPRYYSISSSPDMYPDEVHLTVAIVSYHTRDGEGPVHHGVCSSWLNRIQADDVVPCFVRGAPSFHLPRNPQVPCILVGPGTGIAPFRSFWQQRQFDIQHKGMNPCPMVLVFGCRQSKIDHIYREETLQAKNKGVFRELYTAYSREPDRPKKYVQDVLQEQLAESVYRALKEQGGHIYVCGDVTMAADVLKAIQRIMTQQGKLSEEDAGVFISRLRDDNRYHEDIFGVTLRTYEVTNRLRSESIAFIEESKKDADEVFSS

Cc1cc(N)nc(C[C@@H]2CNC[C@@H]2OCCN[C@H](C)Cc2cccc(F)c2)c1
Ratio Ki [1]: 110
Ki [2]: 7.6 µM
Ratio Ki [3]: 570
Ki (Nitric oxide synthase 3): 40 µM
Ki (Nitric oxide synthase 1): 0.07 µM

Cc1cc(N)nc(C[C@@H]2CNC[C@@H]2OCCNC2CC2c2cccc(Cl)c2)c1 (mixture of isomers)
Ratio Ki [1]: 12
Ratio Ki [3]: 370

Cc1cc(N)nc(C[C@@H]2CNC[C@@H]2OCCNC(C)Cc2cccc(F)c2)c1 (mixture of isomers)
Ratio Ki [1]: 12
Ratio Ki [3]: 370

Cc1cc(N)nc(C[C@@H]2CNC[C@@H]2OCCNC2CC2c2cccc(F)c2)c1 (mixture of isomers)
Ratio Ki [1]: 94
Ki [2]: 16 µM
Ratio Ki [3]: 300
Ki (Nitric oxide synthase 3): 51 µM
Ki (Nitric oxide synthase 1): 0.17 µM
